Data from PubChem BioAssay AID1033 (Sanford-Burnham Center for Chemical Genomics, 2008).
Active and inactive are the calls of the source. The rule behind the calls is not given here.

biological target: Chaperone protein DnaK (Escherichia coli (strain K12)) (UniProt P0A6Y8); assay: E. coli DnaK SBD ligand binding – biophysical, NMR, chaperone (AID 1033); conditions: Purified DnaK SBD
Sequence (P0A6Y8 whole entry, looked up): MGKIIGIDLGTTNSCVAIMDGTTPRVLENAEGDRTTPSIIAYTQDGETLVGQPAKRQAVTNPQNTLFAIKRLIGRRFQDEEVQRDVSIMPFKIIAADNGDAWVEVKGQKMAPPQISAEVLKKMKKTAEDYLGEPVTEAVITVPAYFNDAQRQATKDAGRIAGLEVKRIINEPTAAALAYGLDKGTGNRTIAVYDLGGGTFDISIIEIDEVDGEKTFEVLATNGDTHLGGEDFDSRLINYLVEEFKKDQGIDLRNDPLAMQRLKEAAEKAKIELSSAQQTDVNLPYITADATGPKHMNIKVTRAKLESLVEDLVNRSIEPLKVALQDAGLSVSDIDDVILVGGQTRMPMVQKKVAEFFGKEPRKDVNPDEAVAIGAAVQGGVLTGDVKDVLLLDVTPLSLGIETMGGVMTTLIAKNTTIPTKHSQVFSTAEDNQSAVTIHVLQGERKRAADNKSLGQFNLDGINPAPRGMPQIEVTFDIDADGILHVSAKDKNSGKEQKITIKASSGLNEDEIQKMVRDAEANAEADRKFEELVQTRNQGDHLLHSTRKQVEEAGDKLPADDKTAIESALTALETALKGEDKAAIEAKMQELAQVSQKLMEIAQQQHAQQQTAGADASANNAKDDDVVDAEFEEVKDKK

Q: Which Kd does the source give for Cc1cc(NC(=O)c2ocnc2C)no1 here?
A: > 4 mM (inactive)

Q: For NC(=O)c1ccc(C(N)=O)c(-c2ccccc2)c1, which Kd is on record?
A: > 4 mM (inactive)

Q: For Cc1nnc(C)n1/N=C/c1cccs1, which Kd is on record?
A: > 4 mM (inactive)

Q: How did the Kd turn out when O=C1c2ccccc2-c2ncnc3cccc1c23 was run?
A: > 4 mM (inactive)

Q: How did the Kd turn out when CCN1CCC(=NO)CC1 was run?
A: > 4 mM (inactive)

Q: How did the Kd turn out when NC(=O)C1CCN(CN2C(=O)c3ccccc3C2=O)CC1 was run?
A: > 4 mM (inactive)

Q: With COc1ccc2c(c1OC)C(=O)O[C@@H]2[C@@H]1c2cc3c(cc2CCN1C)OCO3 as the molecule, how does the Kd read?
A: > 4 mM (inactive)

Q: For NS(=O)(=O)c1ccc(N=Cc2cccs2)cc1, which Kd is on record?
A: > 4 mM (inactive)

Q: O=C(c1ccco1)N1C(=O)c2cccc3cccc1c23 was tested. Which Kd did it give?
A: > 4 mM (inactive)

Q: For O=C(O)Cc1csc(-c2ccccc2)n1, which Kd is on record?
A: > 4 mM (inactive)

Q: Which Kd does the source give for CN(C(=O)NC1CCS(=O)(=O)C1)C1CCCCC1 (stereo not drawn) here?
A: > 4 mM (inactive)

Q: For O=C1CSC(c2ccc3c(c2)OCO3)N1 (stereo not drawn), which Kd is on record?
A: > 4 mM (inactive)

Q: How did the Kd turn out when CN1CCN(C(=O)c2cc(-c3ccccc3)on2)CC1 was run?
A: > 4 mM (inactive)

Q: For Nc1ccc(-c2cnco2)cc1, which Kd is on record?
A: > 4 mM (inactive)

Q: For CC(=O)N1CCN(c2ccc(N)cc2)CC1, which Kd is on record?
A: > 4 mM (inactive)

Q: How did the Kd turn out when NC(Cn1ccc(=O)c(O)c1)C(=O)O (stereo not drawn) was run?
A: > 4 mM (inactive)

Q: CC(C)(C)C(=O)N1CCCC1C(=O)O (stereo not drawn) was tested. Which Kd did it give?
A: > 4 mM (inactive)

Q: How did the Kd turn out when CC(=O)O[C@H]1CC[C@@]2(C)C(=CCC3C2CC[C@@]2(C)C3CC[C@@H]2C(C)CCCC(C)C)C1 (stereo partly drawn) was run?
A: > 4 mM (inactive)

Q: For COC(=O)c1c(C)cc(OC(=O)c2c(C)cc(O)c(C=O)c2O)c(C)c1O, which Kd is on record?
A: > 4 mM (inactive)

Q: COC(=O)[C@H]1[C@H]2C[C@H]3c4[nH]c5ccccc5c4CCN3C[C@H]2CC[C@@H]1O was tested. Which Kd did it give?
A: > 4 mM (inactive)

Q: CC(=O)Nc1ccc(-c2ccc3nncn3n2)cc1 was tested. Which Kd did it give?
A: > 4 mM (inactive)

Q: How did the Kd turn out when CN1CCN(c2nc3c(c(=O)[nH]2)CCCC3)CC1 was run?
A: > 4 mM (inactive)

Q: COc1cc(O)ccc1C(C)=O was tested. Which Kd did it give?
A: > 4 mM (inactive)

Q: With Cc1cc(=O)[nH]c(N2CCN(Cc3ccccc3)CC2)n1 as the molecule, how does the Kd read?
A: > 4 mM (inactive)

Q: For CC(=O)Nc1cc(N2C(=O)C=CC2=O)ccc1Cl, which Kd is on record?
A: > 4 mM (inactive)

Q: How did the Kd turn out when O=C(O)c1cc2ccccc2s1 was run?
A: > 4 mM (inactive)

Q: How did the Kd turn out when CCOC(=O)c1csc(N)n1 was run?
A: > 4 mM (inactive)

Q: With O=C(O)c1cccc2nsnc12 as the molecule, how does the Kd read?
A: > 4 mM (inactive)

Q: How did the Kd turn out when NC(=O)c1ccccc1NC(=O)c1cccnc1 was run?
A: > 4 mM (inactive)

Q: Which Kd does the source give for Cc1cc(O)cc(=O)n1CCCC(=O)O here?
A: > 4 mM (inactive)

Q: For CC(=O)Nc1ccc(NC(=O)c2ccnn2C)cc1, which Kd is on record?
A: > 4 mM (inactive)

Q: With Cc1c(C(=O)OC(C)C)[nH]c2c1C(=O)CCC2 as the molecule, how does the Kd read?
A: > 4 mM (inactive)

Q: How did the Kd turn out when O=C(NCO)c1ccc([N+](=O)[O-])cc1 was run?
A: > 4 mM (inactive)

Q: With O=C1C2CCCCC2C(=O)N1c1ccc(O)cc1 (stereo not drawn) as the molecule, how does the Kd read?
A: > 4 mM (inactive)

Q: How did the Kd turn out when CC(=O)Nc1ccc(S(=O)(=O)NCC2CCCO2)cc1 (stereo not drawn) was run?
A: > 4 mM (inactive)

Q: How did the Kd turn out when Nc1nnc(COc2cccc(C(F)(F)F)c2)s1 was run?
A: > 4 mM (inactive)

Q: With CC(=O)OC1CCC2(O)CC1(C)CCC1C2CC1(C)C (stereo not drawn) as the molecule, how does the Kd read?
A: > 4 mM (inactive)

Q: For CSc1nc2nccc(N)n2n1, which Kd is on record?
A: > 4 mM (inactive)

Q: How did the Kd turn out when NC(=O)c1ccsc1NC(=O)C1=COCCO1 was run?
A: > 4 mM (inactive)

Q: Which Kd does the source give for O=C(O[C@@H]1Cc2c(O)cc(O)cc2O[C@@H]1c1cc(O)c(O)c(O)c1)c1cc(O)c(O)c(O)c1 here?
A: > 4 mM (inactive)

Q: How did the Kd turn out when c1coc(CNc2nc(-c3ccncc3)cs2)c1 was run?
A: > 4 mM (inactive)

Q: CC(=O)Nc1ccc(NC(=O)c2ccncc2)cc1 was tested. Which Kd did it give?
A: > 4 mM (inactive)

Q: How did the Kd turn out when Nc1ccc(NC(=O)c2ccco2)c(Cl)c1 was run?
A: > 4 mM (inactive)

Q: CC(=O)c1ccc(-n2ccnc2)cc1 was tested. Which Kd did it give?
A: > 4 mM (inactive)

Q: How did the Kd turn out when O=C(O)c1ccc2sccc2c1 was run?
A: > 4 mM (inactive)

Q: How did the Kd turn out when COc1ccc(C(=O)NCC(=O)O)cc1 was run?
A: > 4 mM (inactive)

Q: For O=C(Nc1nnc(C(F)(F)F)s1)c1cccnc1, which Kd is on record?
A: > 4 mM (inactive)

Q: For COc1cccc(N2CCN(C(=O)c3cccnc3)CC2)c1, which Kd is on record?
A: > 4 mM (inactive)
